{
  "source": "patent US20130022620A1",
  "about": "“ASSAYS AND METHODS PERTAINING TO PRE-AMYLOID INTERMEDIATES” (priority 2011, published 2013)",
  "molecules": {"B1": {"name": "rat IAPP (peptide, UniProt P12969 38-74, looked up)", "peptide": "KCNTATCATQRLANFLVRSSNNLGPVLPPTNVGSNTY-NH2", "modifications": "disulfide 2-7", "notes": "mature; also called non-toxic rat IAPP; non-amyloidogenic rat IAPP"}, "B2": {"name": "I26P-IAPP (I26P point mutant of human IAPP) (peptide)", "peptide": "KCNTATCATQRLANFLVHSSNNFGAPLSSTNVGSNTY-NH2", "modifications": "disulfide 2-7; N-terminus assumed", "SMILES": "CC(C)C[C@H](NC(=O)[C@H](CCCNC(=N)N)NC(=O)[C@H](CCC(N)=O)NC(=O)[C@@H](NC(=O)[C@H](C)NC(=O)[C@@H]1CSSC[C@H](NC(=O)[C@@H](N)CCCCN)C(=O)N[C@@H](CC(N)=O)C(=O)N[C@@H]([C@@H](C)O)C(=O)N[C@@H](C)C(=O)N[C@@H]([C@@H](C)O)C(=O)N1)[C@@H](C)O)C(=O)N[C@@H](C)C(=O)N[C@@H](CC(N)=O)C(=O)N[C@@H](Cc1ccccc1)C(=O)N[C@@H](CC(C)C)C(=O)N[C@H](C(=O)N[C@@H](Cc1c[nH]cn1)C(=O)N[C@@H](CO)C(=O)N[C@@H](CO)C(=O)N[C@@H](CC(N)=O)C(=O)N[C@@H](CC(N)=O)C(=O)N[C@@H](Cc1ccccc1)C(=O)NCC(=O)N[C@@H](C)C(=O)N1CCC[C@H]1C(=O)N[C@@H](CC(C)C)C(=O)N[C@@H](CO)C(=O)N[C@@H](CO)C(=O)N[C@H](C(=O)N[C@@H](CC(N)=O)C(=O)N[C@H](C(=O)NCC(=O)N[C@@H](CO)C(=O)N[C@@H](CC(N)=O)C(=O)N[C@H](C(=O)N[C@@H](Cc1ccc(O)cc1)C(N)=O)[C@@H](C)O)C(C)C)[C@@H](C)O)C(C)C", "notes": "also called nontoxic, aggregation-prone I26P-IAPP variant of h-IAPP"}},
  "key": {"rat INS-1 β-cells": {"system": "rat INS-1 β-cells", "experiment": "AlamarBlue cell viability assay of β-cells", "type": "cell-based", "conditions": "for onset and duration of toxicity compared to wild type: side-by-side with kinetics, 20 uM for the Ser-20 mutants", "procedure": "Transformed rat insulinoma-1 (INS-1) β-cells (which express RAGE) are a pancreatic beta cell line commonly used for studies of h-IAPP induced toxicity. INS-1 cells were grown in RPMI 1640 supplemented with 10% fetal bovine serum (FBS), 11 mM glucose, 10 mM Hepes, 2 mM L-glutamine, 1 mM sodium pyruvate, 50 μM β-mercaptoethanol, 100 U/ml penicillin, and […] streptomycin. Cells were maintained at 37° C./5% CO2.\nCyto-toxicity was measured by AlamarBlue assay. INS-1 β-cells were seeded at a density of 30,000 cells per well in 96-well plates and cultured for 24 hours prior to stimulation with IAPP. Human and rat IAPP were dissolved and incubated in 16 mM tris HCl (pH 7.4, 25° C.) prior to cell stimulation. AlamarBlue was diluted ten-fold in culture media and cells were incubated for 5 hours at 37° C. Fluorescence (excitation 530; emission 590 nm) was measured on a Beckman Coulter DTX880 fluorescent plate reader. Values calculated were relative to those of control cells treated with buffer only. All values represent means±SEM (n=3).\nChanges in cell morphology were examined by light microscopy to provide a second method of evaluating cell viability. Transformed rat INS-1 beta cells were photographed immediately prior to assessment of toxicity by Alamar blue cell viability assays. Images were taken using an Olympus BX-61 light microscope."}, "[1]": {"experiment": "Thioflavin-T kinetics and TEM of amyloid formation by IAPP peptides", "type": "physicochemical", "procedure": "Thioflavin-T fluorescence was used to monitor the time course of h-IAPP amyloid formation in the presence and absence of sRAGE. To identify which form(s) of h-IAPP interact with RAGE, sRAGE was added to h-IAPP at various time points during the h-IAPP amyloid formation reaction. Aliquots of the reaction mixture were analyzed by adding 100 uL aliquots of the amyloid formation reaction to 96-well plates containing 8 uL of 60 uM thioflavin-T solution at various incubation times after initiation of the amyloid formation reaction. Fluorescence was measured using a Beckman Coulter DTX880 fluorescent plate reader (excitation: 445 nm and emission: 485 nm). Final solution conditions contained 16 mM tris HCl and […] thioflavin-T (pH 7.4). […] All values represent means±SEM (n=3).\nTransient kinetic species of h-IAPP were characterized by TEM. TEM images confirm the presence or absence of amyloid which were indicated by thioflavin-T fluorescence. Aliquots (4 μl) were removed from the reaction mixtures monitored by thioflavin-T assays, placed on a carbon-coated 200-mesh copper grid and negatively stained with saturated uranyl acetate. The samples were imaged with a Philips CM12 transmission electron microscope at the New York University electron microscopy core facility. Final solution conditions contained 16 mM tris HCl (pH 7.4)."}, "[2]": {"system": "MCP-1 and IL-1β mRNA expression", "experiment": "qRT-PCR of MCP-1 and IL-1β mRNA in β-cells", "type": "cell-based, rat", "conditions": "β-cells stimulated with peptide", "procedure": "(§1) Assays for qRT-PCR were carried out in 6-well plates. Total cellular RNA was isolated from h-IAPP stimulated β-cells using Qiagen RNA isolation kit, and the quality of RNA samples was determined by measurement of 260:280 ratio. Only samples with a 260:280 ratio of 2.0 or higher were used for reverse transcription. RNA samples were also treated by RNAse-free DNAse to avoid genomic DNA contamination. One microgram of RNA from each sample was reverse-transcribed to cDNA using MCP-1 and IL-1β primers. Non-template negative controls were also performed to monitor non-specific reactions. RNA isolated from rat IAPP and non-h-IAPP treated beta cells were used as negative controls. Equal amounts of RNA were used in each qRT-PCR reaction, and 18S was used as the internal control for amplification at the same time. qRT-PCR reactions were carried out using an Applied Biosystems 7500 RealTime PCR machine. The relative mRNA contents were normalized using 18S and quantification was carried out using qRT-PCR Quantifier Software."}, "sRAGE [3]": {"target": "T1, sRAGE (Homo sapiens, UniProt Q15109)", "T1 construct": "the soluble extracellular domain of RAGE (sRAGE); made in house; host or cells: Sf9 insect cells (baculovirus)", "T1 sequence (Q15109 23-342)": "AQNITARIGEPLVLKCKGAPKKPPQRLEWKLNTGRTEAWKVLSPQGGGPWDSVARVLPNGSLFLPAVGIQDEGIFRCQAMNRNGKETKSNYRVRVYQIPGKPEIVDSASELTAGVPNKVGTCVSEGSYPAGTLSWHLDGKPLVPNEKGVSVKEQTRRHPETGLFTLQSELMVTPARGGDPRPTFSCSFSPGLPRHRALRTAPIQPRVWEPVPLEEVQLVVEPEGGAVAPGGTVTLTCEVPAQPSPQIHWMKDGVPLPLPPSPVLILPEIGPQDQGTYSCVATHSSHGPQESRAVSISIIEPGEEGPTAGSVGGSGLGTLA", "experiment": "Tryptophan fluorescence quenching assay of sRAGE binding", "conditions": "sRAGE added at different time points of the reaction, 1:1 molar ratio", "excerpt": "The quenching of tryptophan fluorescence indicates binding. Fluorescence measurements were made at right angle in a […] dual path length quartz cuvette, using a Photon Technology International fluorescent spectrometer (280 nm excitation and 350 nm emission). Background fluorescence from buffer and IAPP peptides were negligible. The fluorescence quantum yield reported for each time point is an average of 20 reads over 20 seconds (2.5 nm bandwidth and 1 second integration time). Final solution conditions contained 16 mM tris HCl (pH 7.4)."}, "[4]": {"system": "MCP-1 and IL-1β mRNA expression", "experiment": "qRT-PCR of MCP-1 and IL-1β mRNA in smooth muscle cells", "type": "cell-based, mouse", "conditions": "peptide stimulation", "procedure": "Mouse vascular SMCs were cultured from the aortas of 10-week-old male mice using a modification of the procedure of Tarvo and Barret. See Tarvo et al. Blood Vessels. 1980; 17:110-116. SMCs were cultured following an explant protocol in accordance with institutional guidelines. Cultures were composed of 95% SM-α-actin positivity based on immunostaining.\nas §1"}, "sRAGE [5]": {"target": "T1, sRAGE", "experiment": "Difference CD of IAPP peptides with sRAGE", "type": "binding", "conditions": "end point of the reactions", "procedure": "CD measurements of IAPP, sRAGE and IAPP/sRAGE reactions were taken at various incubation times. Far-UV CD experiments monitor the development of secondary structure of h-IAPP species and give insight into the conformational requirement for IAPP/RAGE-binding. All CD experiments were performed on an Applied Photophysics circular dichroism spectrophotometer by directly transferring 300 μL of peptide solution from kinetic assays into a 0.1 cm quartz cuvette a few minutes prior to data collection. The CD spectra for sRAGE and tris HCl buffer was subtracted from all RAGE/IAPP mixtures. The final far-UV CD data was collected over the range of 190 to 260 nm. Final solution conditions contained 16 mM tris HCl (pH 7.4)."}, "[6]": {"target": "T2, soluble RAGE (sRAGE), soluble extracellular domain of the receptor for advanced glycation endproducts (human, UniProt Q15109 23-342, glycosylated (heterogeneity in GlcN and GlcNAc glycosylation by MALDI-TOF))", "T2 construct": "The purification protocol gives two species, full length (36,254 Da) and C-truncated (34,710 Da); also called human sRAGE", "T2 sequence (Q15109 23-342)": "as above", "experiment": "tryptophan fluorescence quenching", "excerpt": "(E) Trp fluorescence quenching experiments.\nBinding of ligands to this region should alter the environment of the tryptophans and lead to a change in their fluorescent quantum yield. Thus, the quenching of tryptophan fluorescence can be used to monitor binding."}, "[7]": {"target": "T2, soluble RAGE (sRAGE), soluble …", "experiment": "tryptophan fluorescence quenching; sRAGE added at different time points of the aggregation reaction"}},
  "note": "Positions of bridges follow the written chain, without caps; N, C: chain ends. No end group written: not given here.",
  "data": [
    {"molecule": "S20K-IAPP: h-IAPP with Ser-20 substituted by lysine (KCNTATCATQRLANFLVHSKNNFGAILSSTNVGSNTY-NH2; disulfide 2-7; N-terminus assumed; SMILES CC[C@H](C)[C@H](NC(=O)[C@H](C)NC(=O)CNC(=O)[C@H](Cc1ccccc1)NC(=O)[C@H](CC(N)=O)NC(=O)[C@H](CC(N)=O)NC(=O)[C@H](CCCCN)NC(=O)[C@H](CO)NC(=O)[C@H](Cc1c[nH]cn1)NC(=O)[C@@H](NC(=O)[C@H](CC(C)C)NC(=O)[C@H](Cc1ccccc1)NC(=O)[C@H](CC(N)=O)NC(=O)[C@H](C)NC(=O)[C@H](CC(C)C)NC(=O)[C@H](CCCNC(=N)N)NC(=O)[C@H](CCC(N)=O)NC(=O)[C@@H](NC(=O)[C@H](C)NC(=O)[C@@H]1CSSC[C@H](NC(=O)[C@@H](N)CCCCN)C(=O)N[C@@H](CC(N)=O)C(=O)N[C@@H]([C@@H](C)O)C(=O)N[C@@H](C)C(=O)N[C@@H]([C@@H](C)O)C(=O)N1)[C@@H](C)O)C(C)C)C(=O)N[C@@H](CC(C)C)C(=O)N[C@@H](CO)C(=O)N[C@@H](CO)C(=O)N[C@H](C(=O)N[C@@H](CC(N)=O)C(=O)N[C@H](C(=O)NCC(=O)N[C@@H](CO)C(=O)N[C@@H](CC(N)=O)C(=O)N[C@H](C(=O)N[C@@H](Cc1ccc(O)cc1)C(N)=O)[C@@H](C)O)C(C)C)[C@@H](C)O; UniProt P10997 34-70, looked up, variant S20K)", "values": [
      {"measurement": "onset and duration of toxicity compared to wild type", "setting": "rat INS-1 β-cells", "result": "shifts the onset of toxicity to later time points and increases its duration"},
      {"measurement": "rate of aggregation compared to wild type", "setting": "[1]; 20 uM, pH 7.4 25° C.", "result": "slower aggregation rate"}
    ]},
    {"molecule": "rat IAPP: non-amyloidogenic, non-toxic rat IAPP used as negative control", "values": [
      {"measurement": "cell toxicity (AlamarBlue cell viability, light microscopy)", "setting": "rat INS-1 β-cells; peptide incubated in buffer at room temperature for various times, then applied to INS-1 β-cells", "result": "No toxicity was observed at any time point"},
      {"measurement": "amyloid formation (thioflavin-T)", "setting": "[1]; peptide by itself", "result": "does not form amyloid at any time point"},
      {"measurement": "MCP-1 and IL-1β mRNA expression", "setting": "[2]", "result": "does not induce up-regulation"},
      {"measurement": "binding to sRAGE (tryptophan fluorescence quenching)", "setting": "sRAGE [3]", "result": "No binding"},
      {"measurement": "MCP-1 and IL-1β mRNA expression in smooth muscle cells", "setting": "[4]", "result": "rat IAPP does not"},
      {"measurement": "interaction with sRAGE (difference CD)", "setting": "sRAGE [5]", "result": "does not interact"}
    ]},
    {"molecule": "3×L-IAPP: h-IAPP triple mutant in which leucines replaced F15, F23 and Y37 (KCNTATCATQRLANLLVHSSNNLGAILSSTNVGSNTL-NH2; disulfide 2-7; N-terminus assumed; SMILES CC[C@H](C)[C@H](NC(=O)[C@H](C)NC(=O)CNC(=O)[C@H](CC(C)C)NC(=O)[C@H](CC(N)=O)NC(=O)[C@H](CC(N)=O)NC(=O)[C@H](CO)NC(=O)[C@H](CO)NC(=O)[C@H](Cc1c[nH]cn1)NC(=O)[C@@H](NC(=O)[C@H](CC(C)C)NC(=O)[C@H](CC(C)C)NC(=O)[C@H](CC(N)=O)NC(=O)[C@H](C)NC(=O)[C@H](CC(C)C)NC(=O)[C@H](CCCNC(=N)N)NC(=O)[C@H](CCC(N)=O)NC(=O)[C@@H](NC(=O)[C@H](C)NC(=O)[C@@H]1CSSC[C@H](NC(=O)[C@@H](N)CCCCN)C(=O)N[C@@H](CC(N)=O)C(=O)N[C@@H]([C@@H](C)O)C(=O)N[C@@H](C)C(=O)N[C@@H]([C@@H](C)O)C(=O)N1)[C@@H](C)O)C(C)C)C(=O)N[C@@H](CC(C)C)C(=O)N[C@@H](CO)C(=O)N[C@@H](CO)C(=O)N[C@H](C(=O)N[C@@H](CC(N)=O)C(=O)N[C@H](C(=O)NCC(=O)N[C@@H](CO)C(=O)N[C@@H](CC(N)=O)C(=O)N[C@H](C(=O)N[C@@H](CC(C)C)C(N)=O)[C@@H](C)O)C(C)C)[C@@H](C)O; UniProt P10997 34-70, looked up, variant F15L F23L Y37L)", "values": [
      {"measurement": "onset and duration of toxicity compared to wild type", "setting": "rat INS-1 β-cells", "result": "longer duration of toxicity than observed with wild type"},
      {"measurement": "amyloid formation, slower than wild type", "setting": "[1]; triple mutant, leucines at positions 15, 23 and 37", "result": 6, "unit": "fold"}
    ]},
    {"molecule": "B1", "values": [
      {"measurement": "binding result", "setting": "[6]", "result": "no binding (tested: 20 µM rat IAPP, 1:1 molar ratio)"}
    ]},
    {"molecule": "B2", "values": [
      {"measurement": "binding result", "setting": "[7]", "result": "no binding"}
    ]}
  ]
}
